The record followed here is US20070037887A1, “Blockade of mtor to prevent a hormonal adaptive response” (University of Virginia Patent Foundation, priority 2003, published 2007).

Assay [1] has as its system ERK1/2 MAP kinase, Akt, p70 S6 kinase, PHAS-I phosphorylation in LTED cells. Nature of the assay: Western analysis of serum-stimulated kinase phosphorylation, LTED cells. It counts as cell-based, human. On the procedure:
FIGS. 7A-7D represent data showing the effect of FTS on serum-stimulated activation of MAP kinase, PI3 kinase, and mTOR. Subconfluent MCF-7 and LTED cells grown in 60 mm dishes were treated with FTS in their culture media for 24 h. Cells were then harvested and cell lysate prepared. Phosphorylation of ERK1/2 MAP kinase (FIG. 7A), Akt at Ser^473 (FIG. 7B), p70 S6 kinase at Thr^389 (FIG. 7C), and PHAS-I at Ser^65 (FIG. 7D) was detected by Western analysis using specific antibodies and quantitated by densitometry scanning.
FIGS. 10A-10D represent data showing the effect of FTS on serum- and growth factor-induced phosphorylation of p70 S6 kinase at Thr^229 in LTED cells (FIG. 10A). Comparison of FTS and LY 294002 (LY) on Thr^229 phosphorylation of p70 S6K induced by EGF (FIG. 10B; by same treatment as described in FIG. 8). Comparison of FTS and LY 294002 on […] phosphorylation of p70 S6K induced by IGF-1 (FIG. 10C; by same treatment as described in FIG. 8). FIG. 10D is graph displaying the time course of FTS (100 μM) effects on Thr^389 and Thr^229 phosphorylation of p70 S6K in LTED cells cultured in serum containing IMEM.
The levels of phosphorylated ERK1/2 MAPK, Akt (Ser^473), p70S6K (Thr^389) and PHAS-1 (Ser^65) were consistently elevated in LTED cells compared to those in wild type MCF-7 cells as indicated by Western blot analysis using specific antibodies against phosphorylated ERK 1/2 (FIG. 7A), Akt (FIG. 7B), p70S6 kinase (FIG. 7C) and PHAS-1 (FIG. 7D). […] (FIGS. 7C & 7D).
In contrast, LY294002 blocked growth factor induced Thr^229 phosphorylation in a dose- and time-dependent manner (FIGS. 10A and 10B). […] Therefore, FTS's effect on MTOR activity was investigated.

Another assay relates to mTOR-mLST8. Nature of the assay: Coimmunoprecipitation of mLST8 with mTOR, compound added to cell extracts. The following applies: only at the highest concentrations investigated. It counts as binding. On the procedure: FIGS. 13A & 13B represent data showing FTS promotes raptor dissociation and inhibits mTOR activity in cell extracts. 293T cells were transfected with pcDNA3 alone (Vec.) or with a combination of pcDNA3AU1-mTOR, pcDNA33HA-Raptor, and pcDNA33HA-mLST8. Extracts of the cells were incubated with increasing concentrations of FTS before AU1-mTOR was immunoprecipated. Samples of the immune complexes were incubated with [γ-^32P]ATP and recombinant [His^6]PHAS-I, then subjected to SDS-PAGE and transferred to an immobilon membrane. After obtaining a phosphorimage of the membrane to detect ^32P-PHAS-I, the membrane was immunoblotted with PThr^36/45 antibodies. […]
FIGS. 14A & 14B represent data showing the relative effects of increasing concentrations of FTS and GTS on mTOR activity and the association of mTOR and raptor. Samples of extracts from 293T cells overexpressing AU1-mTOR, HA-raptor, and HA-mLST8 were incubated for 1 h with increasing concentrations of FTS (●, ▴, ▪) or GTS (∘, Δ, □) before immunoprecipitations were conducted with anti-AU1 antibodies. mTOR kinase activity (●, ∘) was determined by measuring ^32P incorporation into [His^6]PHAS-I in immune complex kinases assays performed with [γ-^32P]ATP (see FIG. 14A). The relative amounts of HA-raptor (▴, Δ) and HA-mLST8 (▪, □) that coimmunoprecipitated with AU1-mTOR were determined after immunoblotting with anti-HA antibodies (see FIG. 14B). […]

The mark [2] stands for this setting: FTS 100 μM, serum containing medium.

On to `CC(C)=CCC/C(C)=C/CC/C(C)=C/CSc1ccccc1C(=O)O` [FTS, farnesylthiosalicylic acid], for which, in assay [1] (setting [2]), the “time at which inhibition of Thr389 phosphorylation maximized” value amounted to 24 h and the “time at which inhibition of Thr389 phosphorylation occurred” value was found to be 2 h. In assay [1] (FTS 100 μM, serum containing medium, time course), the “Thr229 phosphorylation of p70 S6K” value is reported as “only slightly reduced”. Further, the “phosphorylation of ERK1/2 MAPK, Akt (Ser473), p70S6K (Thr389) and PHAS-1 (Ser65)” value in assay [1] (FTS 24 h in culture media) was “dose-dependently inhibited”. Further, the “amounts of transfected and endogenous mLST8 that coimmunoprecipitated with mTOR” value in the assay with mTOR-mLST8 is given as “modestly decreased”.
